Data: patent publication US10577610B2, “EpCAM aptamers and conjugates thereof” (Deakin University, priority 2015, dated 2020)
[invdT] = inverted (3'-3') thymidine; {TYE665} = TYE665 fluorescent dye

Legend:
[1] = biological target: T1, native EpCAM protein expressed on the cell surface (HEY cells) (Homo sapiens, UniProt P16422); assay: Flow cytometry binding assay on HEY cells (EpCAM-positive); conditions: HEY (EpCAM-positive) cells, flow cytometry, n=3
T1 construct: host or cells: HEY ovarian cancer cells
T1 sequence (P16422 24-314): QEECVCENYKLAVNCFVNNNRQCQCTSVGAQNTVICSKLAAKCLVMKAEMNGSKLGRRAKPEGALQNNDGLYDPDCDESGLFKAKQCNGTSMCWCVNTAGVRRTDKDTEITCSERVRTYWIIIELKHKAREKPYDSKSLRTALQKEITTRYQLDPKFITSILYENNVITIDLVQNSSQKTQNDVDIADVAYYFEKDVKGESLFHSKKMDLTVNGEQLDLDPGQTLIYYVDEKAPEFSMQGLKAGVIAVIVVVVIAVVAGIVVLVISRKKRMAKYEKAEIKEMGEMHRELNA
Protocol: In order to determine the binding affinity (equilibrium dissociation constant KD) of the aptamers. Binding assays were conducted to measure the binding to native EpCAM protein expressed on the cell surface. The aptamers were incubated with the cells at concentrations ranging from 0 nM to 400 nM. These were subsequently analysed by flow cytometry. Aptamers were thawed from storage (−20° C.) prior to use. These were then diluted via serial dilutions with phosphate buffered saline (PBS) in order to achieve the desired concentrations. PBS was supplemented with a MgCl2 concentration appropriate for the aptamer (1 mM for anti-TfR aptamers; 5 mM for conjugate aptamers). Aptamers were then folded into their 3D structures using a thermocycler (85° C. for 5 minutes, slow cooling to 22° C. over 10 minutes and 37° C. for 15 minutes).
Concurrently, subcultured cells were incubated in blocking buffer (PBS with 10% FCS, 1 mg/mL BSA, 0.1 mg/mL tRNA) for 30 minutes. Following centrifugation, blocking buffer was removed and cells were resuspended in binding buffer (PBS with 10% FCS, 1 mg/mL BSA, 0.1 mg/mL tRNA). Cells (50 μL) were then incubated with the aptamers (50 μL) for 30 minutes at 37° C. at a range of concentrations (0 nM, 20 nM, 40 nM, 60 nM, 80 nM, 100 nM, 200 nM, 400 nM). Following this, cells were washed in 100 μL PBS three times before final resuspension for flow cytometry.
Aptamers were incubated with the chosen cell lines (bEnd.3 cells, mouse cells positive for TfR; HEY cells, human ovarian cancer cell line positive for EpCAM; and MOLT4 human cells negative for both TfR and EpCAM) at a range of concentrations. Aptamer-bound cells were analysed using a FACS Canto II flow cytometer (Becton Dickinson), counting 10,000 events for each sample, in order to determine the binding affinity of the aptamers. […] The value for the auto fluorescent 0 nM concentration was subtracted from the other figures to account for background fluorescence (Li N et al (2009) Journal of Proteome Research 8(5):2438-48). The resultant values were then used to determine the dissociation constant (KD) via the Graph Pad Prism 3 software. […]
The binding affinities of aptamers Bi1, Bi2 and Bi3 were determined semi-quantitatively via flow cytometry, using bEnd.3 cells to assess reactivity with TfR, HEY cells to determine EpCAM specificity and the MOLT4 cell line as a negative control. Three independent binding assays were performed for these aptamer against all three cell lines (bEnd.3, HEY and MOLT4). […]

[2] = biological target: T2, native EpCAM protein expressed on the cell surface (HT29 cells) (Homo sapiens, UniProt P16422); assay: Flow cytometry binding assay on HT29 cells (EpCAM-positive); conditions: n=3
T2 construct: endogenous in cells; host or cells: HT29 cells
T2 sequence (P16422 24-314): T1 sequence (P16422 24-314)
Protocol: (§1) The equilibrium dissociation constant (KD) of each DNA EpCAM aptamer (Ep7, Ep8 and Ep9) was determined by measuring its binding to native EpCAM protein expressed on the cell surface using flow cytometry. HT29, HEY and HEK293T (5×10^5) cells were first incubated with blocking buffer (PBS containing 10% FCS, 1 mg/mL tRNA, 1 mg/mL BSA) for 30 minutes followed by a single wash with binding buffer (PBS containing 10% FCS, 1 mg/mL tRNA, 1 mg/mL BSA) prior to incubation with serial dilutions of concentrations of the respective TYE665-labelled aptamers (0 to 200 nM) in binding buffer for 30 min at 37° C. The cells were washed three times with PBS and resuspended in PBS prior to flow cytometric analysis. The fluorescent intensity was determined using a FACS Canto II flow cytometer (Becton Dickinson), counting 10,000 events for each sample. The mean fluorescent intensity of each concentration was […] the auto fluorescent control and the KD for each aptamer was calculated from the normalised values for fluorescent intensity.

HT29 and HEY cells = assay: Confocal microscopy internalisation of EpCAM aptamers into EpCAM positive cells; type: cell-based; conditions: 200 nM, 60 min
Protocol: The ability of each DNA EpCAM aptamer to be internalised was established through confocal microscopy. HT29, HEY, K652 and HEK293T were seeded at 8×10^5 cells per well in 8-chamber slide for 24 h in preparation for confocal […]. Cells were incubated with blocking buffer for 60 min, followed by resuspension in binding buffer and containing 200 nM EpCAM aptamer or negative control aptamer and incubated for 60 min at 37° C. Bisbenzimide Hoechst 33342 (3 mg/ml) (Sigma) was added to the cells during the final 10 min of incubation. The aptamer solution was removed and the cells were washed three times for 5 min each in PBS prior to visualisation using a FluoView FV10i laser scanning confocal microscope (Olympus).

[3] = Doxorubicin loading efficiency by fluorescence spectroscopy; conditions: mean±SEM
Excerpt: The anthracycline class of drugs, including DOX, have fluorescence properties that become quenched after intercalation into DNA (Valentini L et al (1985) II Farmaco edizione scientifica 40(6):377-90. The natural fluorescence of doxorubicin and its subsequent quenching after intercalating with the DNA EpCAM aptamers was utilised for the measurement of the extent of doxorubicin conjugation via Fluorescent Spectroscopy. The conjugation process was studied using different aptamer-doxorubicin molar ratios (0, 0.01, 0.04, 0.08, 0.1, 0.2, 0.3, 0.4, 0.5, and 0.6) and analysed with a fluorescence plate reader based on a standard curve of free doxorubicin.
Prior to conjugation, aptamers were prepared for application as previously described. DOX was then combined with aptamer in conjugation buffer containing 0.1 M sodium acetate, 0.05 M NaCl, and 5 mM MgCl2 and incubated at 37° C. in an Orbital mixer/incubator (RATEK) for 1 hour with agitation (75 r.p.m). The conjugate was then passed through a Sephadex®G-10 medium column (Sigma-Aldrich) to separate the aptamer: doxorubicin conjugate from free DOX. As DOX has a natural fluorescence which is subsequently quenched following intercalation into double stranded DNA, this characteristic of DOX was exploited to determine the amount of DOX that was intercalated into the double stranded stem region of the conjugate aptamers. After column separation, DOX was extracted from the conjugate yield by adding 150 uL of acetonitrile. This solution was then centrifuged for 5 min at 21,000 g. Eighty microliters of supernatant was removed and fluorescent intensity was quantified with a fluorescent plate reader. A calibration standard curve was prepared with known concentrations of DOX under the same condition
Data was analysed using Graph Pad Prism 3 and data was reported as mean and standard error of the mean (mean±SEM) unless otherwise stated.

HEK293T and K562 = assay: Flow cytometry binding to EpCAM negative cell lines; conditions: HEK293T and K562, 0 and 100 nM
Protocol: as §1

mouse TfR = biological target: T3, mouse TfR (Mus musculus, UniProt Q62351); assay: Flow cytometry binding assay on bEnd.3 cells (TfR-positive); conditions: bEnd.3 (TfR-positive) cells, n=3
T3 construct: bEnd.3 cells, mouse cells positive for TfR; host or cells: bEnd.3 mouse cerebral endothelial cells
Protocol: In order to determine the binding affinity (equilibrium dissociation constant KD) of the aptamers. Binding assays were conducted to measure the binding to native EpCAM protein expressed on the cell surface. The aptamers were incubated with the cells at concentrations ranging from 0 nM to 400 nM. These were subsequently analysed by flow cytometry. Aptamers were thawed from storage (-20° C.) prior to use. These were then diluted via serial dilutions with phosphate buffered saline (PBS) in order to achieve the desired concentrations. PBS was supplemented with a MgCl2 concentration appropriate for the aptamer (1 mM for anti-TfR aptamers; 5 mM for conjugate aptamers). […] Concurrently, subcultured cells were incubated in blocking buffer (PBS with 10% FCS, 1 mg/mL BSA, 0.1 mg/mL tRNA) for 30 minutes. Following centrifugation, blocking buffer was removed and cells were resuspended in binding buffer (PBS with 10% FCS, 1 mg/mL BSA, 0.1 mg/mL tRNA). Cells (50 μL) were then incubated with the aptamers (50 μL) for 30 minutes at 37° C. at a range of concentrations (0 nM, 20 nM, 40 nM, 60 nM, 80 nM, 100 nM, 200 nM, 400 nM). Following this, cells were washed in 100 μL PBS three times before final resuspension for flow cytometry. Aptamers were incubated with the chosen cell lines (bEnd.3 cells, mouse cells positive for TfR; HEY cells, human ovarian cancer cell line positive for EpCAM; and MOLT4 human cells negative for both TfR and EpCAM) at a range of concentrations. Aptamer-bound cells were analysed using a FACS Canto II flow cytometer (Becton Dickinson), counting 10,000 events for each sample, in order to determine the binding affinity of the aptamers. […] The value for the auto fluorescent 0 nM concentration was subtracted from the other figures to account for background fluorescence (Li N et al (2009) Journal of Proteome Research 8(5):2438-48). […] The binding affinities of aptamers TfR1, TfR2, […] determined semi-quantitatively via flow cytometry, using bEnd.3 mouse cerebral endothelial cells as a Tf R-positive cell line and MOLT4 acute lymphoblastic leukaemia cells-which express the human TfR, but not the mouse TfR (Sutherland R et al (1981) PNAS 78(7):4515-9)-as a negative control. Three independent binding assays were performed for each aptamer against each cell line. […] Three independent binding assays were performed for these aptamer against all three cell lines (bEnd.3, HEY and MOLT4).

T3 sequence (Q62351 whole entry): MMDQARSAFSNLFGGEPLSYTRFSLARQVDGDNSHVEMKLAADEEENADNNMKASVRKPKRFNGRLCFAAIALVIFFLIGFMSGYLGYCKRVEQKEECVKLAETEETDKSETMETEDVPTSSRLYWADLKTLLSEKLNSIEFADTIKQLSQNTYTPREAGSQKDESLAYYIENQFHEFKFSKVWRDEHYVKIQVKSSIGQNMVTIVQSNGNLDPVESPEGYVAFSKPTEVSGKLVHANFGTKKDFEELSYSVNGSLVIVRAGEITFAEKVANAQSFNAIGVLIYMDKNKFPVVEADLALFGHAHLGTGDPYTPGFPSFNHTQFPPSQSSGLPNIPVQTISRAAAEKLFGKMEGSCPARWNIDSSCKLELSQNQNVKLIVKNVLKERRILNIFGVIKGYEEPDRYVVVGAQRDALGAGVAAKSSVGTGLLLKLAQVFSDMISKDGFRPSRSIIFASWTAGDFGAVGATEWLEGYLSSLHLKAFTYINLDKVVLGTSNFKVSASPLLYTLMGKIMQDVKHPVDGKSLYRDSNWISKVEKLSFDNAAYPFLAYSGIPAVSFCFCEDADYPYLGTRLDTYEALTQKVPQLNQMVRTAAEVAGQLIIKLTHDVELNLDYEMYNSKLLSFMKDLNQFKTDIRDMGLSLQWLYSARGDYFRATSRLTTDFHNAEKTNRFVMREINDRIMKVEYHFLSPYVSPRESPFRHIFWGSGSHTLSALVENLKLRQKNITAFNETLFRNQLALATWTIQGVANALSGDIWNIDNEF

Substance | Kd [1] [nM] | Kd [2] [nM] | Internalisation by EpCAM positive cells (HT29 and HEY cells) | Molar ratio aptamer:dox [3] | Binding to EpCAM negative cell lines (HEK293T and K562) | Kd (mouse TfR) [nM]
Ep9: truncated DNA EpCAM aptamer derived from SYL3C, SEQ ID NO:12 (GGGGTTGGCCCC; DNA, 5' {TYE665}, 3' [invdT], backbone not given here) | 266 ± 121 | 31.8 ± 7.65 | internalised | 0.35 ± 0.06 | did not bind | 
TfR1: truncated fourteen nucleotide DNA aptamer against mouse TfR, SEQ ID NO:4 (GCGTGTGCACACGC; DNA, backbone not given here; further chemistry not fully specified) |  |  |  |  |  | 5760 ± 7120
Scr Ex Ep7: scrambled extended Ep7 aptamer with randomly selected base pairs in the binding loop, SEQ ID NO:14 (CGCGCGCCGCATTCCTTTTGCGGCGCGCG; DNA, 5' {TYE665}, 3' [invdT], backbone not given here) | 521 ± 272 |  | not internalised | 1.01 ± 0.01 |  | 
Ep7: truncated DNA EpCAM aptamer derived from SYL3C, SEQ ID NO:9 (ACAGAGGTTGCGTCTG; DNA, [invdT] at 3' end, 5' {TYE665}, backbone not given here) | 248 ± 82.2 | 11 ± 2.79 | internalised | 0.42 ± 0.11 | did not bind | 
5′ CACTACAGAGGTTGCGTCTGTCCCACGTTGTCATGGGGGGTTGGCCTG 3′ (CACTACAGAGGTTGCGTCTGTCCCACGTTGTCATGGGGGGTTGGCCTG; listed as DNA, chemistry not fully specified) [Full length EpCAM aptamer, reference compound] | 495 ± 147 | 9 ± 1.68 |  | 0.53 ± 0.13 |  | 
Ex Ep7: extended Ep7 aptamer with the same binding loop as Ep7, SEQ ID NO:13 (CGCGCGCCGCAGGTTGCGTGCGGCGCGCG; DNA, 5' {TYE665}, 3' [invdT], backbone not given here) | 63.7 ± 14.4 |  | internalised | 1.17 ± 0.02 |  | 
TfR2: version of TfR1 with scrambled binding loop sequence, SEQ ID NO:5 (DNA GCGTGGGCCCACGC; DNA, backbone not given here; further chemistry not fully specified) |  |  |  |  |  | 525 ± 161
Ep8: truncated DNA EpCAM aptamer derived from SYL3C, SEQ ID NO:11 (CCCACGTTGTCATGGG; DNA, 5' {TYE665}, 3' [invdT], backbone not given here) | 696 ± 486 | 6.19 ± 2.24 | internalised | 0.38 ± 0.06 | did not bind | 
